# Assay results reported in paper PMC11433825, “Bidentate Substrate Binding Mode in Oxalate Decarboxylase” (Molecules, 2024).
# Where a name gives a salt, the structure may show the parent alone.
# Experiments:
# [1] = molecular target: T1, Oxalate decarboxylase (OxDC) (Bacillus subtilis, UniProt O34714, W96F); assay: X-band […] Mims ENDOR; type: binding; conditions: labelled compound (13C), 50 mM; citrate pH 5.0, 50% glycerol, 10 mM ascorbate, 5 uM DTPA; 5 K; bidentate to N-terminal active-site Mn(II)
# T1 construct: recombinant, C-terminal His6 tag kept, IPTG/heat-shock expression with MnCl2, Ni-NTA purified; Mn(II) in two cupin sites per subunit
# T1 sequence (O34714 whole entry W96F): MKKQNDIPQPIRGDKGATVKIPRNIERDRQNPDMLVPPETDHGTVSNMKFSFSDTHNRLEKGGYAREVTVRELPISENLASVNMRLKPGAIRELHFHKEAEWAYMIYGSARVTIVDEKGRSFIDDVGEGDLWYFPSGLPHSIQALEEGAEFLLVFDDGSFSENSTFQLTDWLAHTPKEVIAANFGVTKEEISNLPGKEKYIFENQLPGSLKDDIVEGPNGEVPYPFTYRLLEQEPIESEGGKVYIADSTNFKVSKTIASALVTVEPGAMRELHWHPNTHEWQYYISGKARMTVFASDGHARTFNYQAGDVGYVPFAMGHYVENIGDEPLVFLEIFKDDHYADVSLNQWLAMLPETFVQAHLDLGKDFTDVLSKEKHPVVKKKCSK
# [2] = molecular target: T2, Oxalate decarboxylase (OxDC) (Bacillus subtilis, UniProt O34714); assay: X-band […] Mims ENDOR; type: binding; conditions: labelled compound (13C), 50 mM; Tris pH 8.5, 50% glycerol, 10 mM ascorbate, 5 uM DTPA; 5 K; bidentate to N-terminal active-site Mn(II)
# T2 construct: recombinant, C-terminal His6 tag kept, IPTG/heat-shock expression with MnCl2, Ni-NTA purified; Mn(II) in two cupin sites per subunit
# T2 sequence (O34714 whole entry): as the sequence (O34714 whole entry W96F) above, with F96W counted along it
smiles,measurement,setting,value
O=C(O)C(=O)O [^13C-labeled oxalate],X-band 13C Mims ENDOR,[1],Mn(II) ion in the active site of the OxDC mutant W96F at low pH
same,X-band 13C Mims ENDOR,[2],bidentate binding of oxalate in WT OxDC at high pH where the enzyme is inactive
